In patent publication US6379649B1, “Imidazo(1,2-a)pyridines as peripheral benzodiazepine receptor binding agents” (Australian Nuclear Science & Technology Organisation, priority 1998, dated 2002):

Test: In vivo biodistribution of radiolabelled compounds in rats
Text: In vivo biodistribution of radiolabelled compounds of the invention indicated high uptake in the tissues which have known PBR sites. Tables 2 to 4 show the biodistribution of the compounds of Examples 1-3, in which the iodine atom is radiolabelled, when administered to rats.

CNC(=O)Cc1c(-c2ccc([123I])cc2)nc2ccc(Cl)cn12 [^123-I Example 1]
Biodistribution (% ID/g organ) Adrenals (5 Min): 4.51 ± 1.32 % ID/g organ | Biodistribution (% ID/g organ) Adrenals (15 Min): 7.8 ± 2.16 % ID/g organ | Biodistribution (% ID/g organ) Adrenals (24 Hrs): 0.22 ± 0.09 % ID/g organ | Biodistribution (% ID/g organ) Adrenals (30 Min): 11 ± 2.57 % ID/g organ | Biodistribution (% ID/g organ) Adrenals (60 Min): 11.3 ± 0.87 % ID/g organ | Biodistribution (% ID/g organ) Adrenals (180 Min): 9.84 ± 1.69 % ID/g organ | Biodistribution (% ID/g organ) Adrenals (240 Min): 6.78 ± 1.27 % ID/g organ | Biodistribution (% ID/g organ) Adrenals (360 Min): 5.7 ± 0.15 % ID/g organ | Biodistribution (% ID/g organ) Blood (5 Min): 0.25 ± 0.04 % ID/g organ | Biodistribution (% ID/g organ) Blood (15 Min): 0.16 ± 0.01 % ID/g organ | Biodistribution (% ID/g organ) Blood (24 Hrs): 0.01 ± 0.001 % ID/g organ | Biodistribution (% ID/g organ) Blood (30 Min): 0.12 ± 0.01 % ID/g organ | Biodistribution (% ID/g organ) Blood (60 Min): 0.1 ± 0.01 % ID/g organ | Biodistribution (% ID/g organ) Blood (180 Min): 0.07 ± 0.001 % ID/g organ | Biodistribution (% ID/g organ) Blood (240 Min): 0.06 ± 0.01 % ID/g organ | Biodistribution (% ID/g organ) Blood (360 Min): 0.05 ± 0.001 % ID/g organ | Biodistribution (% ID/g organ) Brain (5 Min): 0.11 ± 0.02 % ID/g organ | Biodistribution (% ID/g organ) Brain (15 Min): 0.08 ± 0.01 % ID/g organ | Biodistribution (% ID/g organ) Brain (24 Hrs): 0 % ID/g organ | Biodistribution (% ID/g organ) Brain (30 Min): 0.06 ± 0.01 % ID/g organ | Biodistribution (% ID/g organ) Brain (60 Min): 0.04 ± 0.001 % ID/g organ | Biodistribution (% ID/g organ) Brain (180 Min): 0.03 ± 0.001 % ID/g organ | Biodistribution (% ID/g organ) Brain (240 Min): 0.02 ± 0.01 % ID/g organ | Biodistribution (% ID/g organ) Brain (360 Min): 0.02 ± 0.001 % ID/g organ | Biodistribution (% ID/g organ) Heart (5 Min): 3.25 ± 0.58 % ID/g organ | Biodistribution (% ID/g organ) Heart (15 Min): 2.09 ± 0.09 % ID/g organ | Biodistribution (% ID/g organ) Heart (24 Hrs): 0.02 ± 0.001 % ID/g organ | Biodistribution (% ID/g organ) Heart (30 Min): 1.41 ± 0.14 % ID/g organ | Biodistribution (% ID/g organ) Heart (60 Min): 1.07 ± 0.09 % ID/g organ | Biodistribution (% ID/g organ) Heart (180 Min): 0.68 ± 0.09 % ID/g organ | Biodistribution (% ID/g organ) Heart (240 Min): 0.54 ± 0.05 % ID/g organ | Biodistribution (% ID/g organ) Heart (360 Min): 0.38 ± 0.02 % ID/g organ | Biodistribution (% ID/g organ) Kidney (5 Min): 1.8 ± 0.35 % ID/g organ | Biodistribution (% ID/g organ) Kidney (15 Min): 1.66 ± 0.13 % ID/g organ | Biodistribution (% ID/g organ) Kidney (24 Hrs): 0.03 ± 0.001 % ID/g organ | Biodistribution (% ID/g organ) Kidney (30 Min): 1.25 ± 0.09 % ID/g organ | Biodistribution (% ID/g organ) Kidney (60 Min): 0.97 ± 0.07 % ID/g organ | Biodistribution (% ID/g organ) Kidney (180 Min): 0.61 ± 0.02 % ID/g organ | Biodistribution (% ID/g organ) Kidney (240 Min): 0.5 ± 0.07 % ID/g organ | Biodistribution (% ID/g organ) Kidney (360 Min): 0.36 ± 0.01 % ID/g organ | Biodistribution (% ID/g organ) Liver (5 Min): 0.94 ± 0.12 % ID/g organ | Biodistribution (% ID/g organ) Liver (15 Min): 0.7 ± 0.07 % ID/g organ | Biodistribution (% ID/g organ) Liver (24 Hrs): 0.09 ± 0.01 % ID/g organ | Biodistribution (% ID/g organ) Liver (30 Min): 0.59 ± 0.04 % ID/g organ | Biodistribution (% ID/g organ) Liver (60 Min): 0.47 ± 0.02 % ID/g organ | Biodistribution (% ID/g organ) Liver (180 Min): 0.37 ± 0.01 % ID/g organ | Biodistribution (% ID/g organ) Liver (240 Min): 0.33 ± 0.04 % ID/g organ | Biodistribution (% ID/g organ) Liver (360 Min): 0.27 ± 0.01 % ID/g organ | Biodistribution (% ID/g organ) Lungs (5 Min): 2.81 ± 0.49 % ID/g organ | Biodistribution (% ID/g organ) Lungs (15 Min): 1.79 ± 0.18 % ID/g organ | Biodistribution (% ID/g organ) Lungs (24 Hrs): 0.02 ± 0.001 % ID/g organ | Biodistribution (% ID/g organ) Lungs (30 Min): 1.39 ± 0.14 % ID/g organ | Biodistribution (% ID/g organ) Lungs (60 Min): 0.97 ± 0.22 % ID/g organ | Biodistribution (% ID/g organ) Lungs (180 Min): 0.72 ± 0.05 % ID/g organ | Biodistribution (% ID/g organ) Lungs (240 Min): 0.63 ± 0.05 % ID/g organ | Biodistribution (% ID/g organ) Lungs (360 Min): 0.44 ± 0.07 % ID/g organ | Biodistribution (% ID/g organ) Olfactive bulbs (5 Min): 0.2 ± 0.02 % ID/g organ | Biodistribution (% ID/g organ) Olfactive bulbs (15 Min): 0.18 ± 0.03 % ID/g organ | Biodistribution (% ID/g organ) Olfactive bulbs (24 Hrs): 0.01 ± 0.001 % ID/g organ | Biodistribution (% ID/g organ) Olfactive bulbs (30 Min): 0.13 ± 0.02 % ID/g organ | Biodistribution (% ID/g organ) Olfactive bulbs (60 Min): 0.14 ± 0.001 % ID/g organ | Biodistribution (% ID/g organ) Olfactive bulbs (180 Min): 0.09 ± 0.02 % ID/g organ | Biodistribution (% ID/g organ) Olfactive bulbs (240 Min): 0.07 ± 0.001 % ID/g organ | Biodistribution (% ID/g organ) Olfactive bulbs (360 Min): 0.05 ± 0.001 % ID/g organ | Biodistribution (% ID/g organ) Testes (5 Min): 0.14 ± 0.03 % ID/g organ | Biodistribution (% ID/g organ) Testes (15 Min): 0.22 ± 0.06 % ID/g organ | Biodistribution (% ID/g organ) Testes (24 Hrs): 0.01 ± 0.001 % ID/g organ | Biodistribution (% ID/g organ) Testes (30 Min): 0.26 ± 0.05 % ID/g organ | Biodistribution (% ID/g organ) Testes (60 Min): 0.28 ± 0.05 % ID/g organ | Biodistribution (% ID/g organ) Testes (180 Min): 0.25 ± 0.01 % ID/g organ | Biodistribution (% ID/g organ) Testes (240 Min): 0.22 ± 0.03 % ID/g organ | Biodistribution (% ID/g organ) Testes (360 Min): 0.16 ± 0.03 % ID/g organ
